Results from patent US20050096254A1, “Peptide deformylase activated prodrugs” (priority 2002, published 2005).
In brackets after ≈: the same amount, converted by molar mass.

Test system: E. coli/Tem-1
Test: MIC susceptibility testing (modified NCCLS)
Type: cell-based
Settings: Table 4, E. coli expressing TEM-1 beta-lactamase
Method: The NCCLS (National Committee for Clinical Laboratory Standards), method to determine MIC's of antimicrobial compounds is modified for high-throughput screening. All stocks of tested compounds are prepared in either water or in DMSO depending on solubility. At the highest concentration, DMSO content should not exceed 0.5%. Briefly, twenty 2-fold serial dilutions of test compounds from the highest concentration is made in a 384-well microtiter plate. Each well is inoculated with testing bacteria in broth to a final concentration of approximately 1-1.5×10^6 cells/ml. Bacterial growth is determined by the increase of optical density at 600 nm using a microplate reader (Tecan SpectraFluor Plus). The MIC is defined as the lowest concentration at which bacterial growth (equivalent to visible growth) was inhibited after 16 to 18 hours of incubation at the appropriate temperature required for the bacteria growth.
E. coli/TEM—E. coli expressing TEM-1 beta-lactamase; MRSA—Methicillin Resistant S. Aureus; MSSA—Methicillin Sensitive S. Aureus.

Q: With `CSCC[C@H](NC=O)C(=O)N[C@@H](CC(C)C)C(=O)Oc1cc(Cl)ccc1Oc1ccc(Cl)cc1Cl` [Compound #2] as the molecule, how does the MIC (Exp. #1) read?
A: 16 µg/mL (≈ 28.5 µM)

Q: And the MIC (Exp. #2)?
A: 16 µg/mL (≈ 28.5 µM)
